The text below walks through data of patent US4939138A, “2- and 3-aminomethyl-6-arylcarbonyl-2,3-dihydropyrrolo(1,2,3-DE)-1,4-benzoxazin es” (Sterling Drug Inc., priority 1989, dated 1990).

For one experiment, the system named is mouse vas deferens. The experiment can be described thus: mouse vas deferens adrenergic transmission test (MVD). To be noted: for IC50: concentration producing 50% of the maximum response; for MVD percent inhibition: 10 μM. From the text: (§1) The test procedures used to determine the analgesic activities of the compounds have been described in detail in the prior art and are as follows: The acetylcholine-induced abdominal constriction test, which is a primary analgesic screening test designed to measure the ability of a test agent to suppress acetylcholine-induced abdominal constriction in mice, described by Collier et al., Brit. J. Pharmacol. Chemotherap. 32, 295 (1968); a modification of the anti-bradykinin test, which is also a primary analgesic screening procedure, described by Berkowitz et al., J. Pharmacol. Exptl Therap. 177, 500-508 (1971), Blane et al., J. Pharm. Pharmacol 19, 367-373 (1967), Botha et al., Eur. J. Pharmacol. 6, 312-321 (1969) and Deffenu et al., J. Pharm. Pharmacol. 18, 135 (1966); the rat paw flexion test, described by Kuzuna et al., Chem. Pharm. Bull., 23, 1184-1191 (1975), Winter et al., J. Pharm. Exptl. Therap., 211, 678-685 (1979) and Capetola et al., J. Pharm. Exptl. Therap. 214, 16-23 (1980); and the mouse vas deferens adrenergic transmission test, described by Henderson et al., Brit. J. Pharmacol., 46, 764-766 (1972).
As before, the compounds are identified by the example number above where their preparations are described.

For experiment [1], the system named is acetic acid-induced writhing. The experiment can be described thus: inhibition of acetic acid-induced writhing in the rat (RW). In kind it is in vivo, rat (male Sprague Dawley). To be noted: oral; for ED50: Rattus norvegicus. The procedure:
(§2) In order to further detail the analgesic profiles of the compounds of the invention, their activities in the inhibition of acetic acid-induced writhing assay in the rat, the inhibition of cyclooxygenase assay and a modification of the Randall-Selitto analgesic test were also determined The test procedure used to determine the inhibition of acetic acid-inducedwrithing in the rat is described as follows.
Male Sprague Dawley rats (Taconic Farms) weighing between 160 and 200g were treated in a random and blind fashion with 1% gum tragacanth vehicle or test agent suspended or dissolved in 1% gum tragacanth. Rats were individually housed in plastic cages (28×18×12 cm) throughout the experiment. Forty-five minutes after drug treatment, 0.5 ml of 9% (w/v) acetic acid was administered intraperitoneally, and animals were returned to their cages for 10 minutes. Writhing is not normally seen during this 10 minute period. Each animal was then observed for a writhing response during a subsequent 10 minute interval (55-65 minutes post-drug treatment). A writhing response was defined as arching of the back with extension of the hindlimbs and contraction of abdominal muscles. […] Data were expressed as percent inhibition of the mean number of writhes in the vehicle treated control group. Data were evaluated for statistical significance by Dunnett's test, and ED50 's for inhibition of acetic acid-induced writhing were determined by the graded dose-response analysis of Tallarida and Murray, Manual of Pharmacologic Calculations with Computer Programs, Springer Verlag, New York (1981).
(§3) In the acetylcholine-induced abdominal constriction test, the test compounds were administered either as suspensions in gum tragacanth (GT) or as aqueous solutions prepared by addition of just sufficient dilute aqueous methanesulfonic acid (MS) or dilute aqueous lactic acid (LA) to dissolve the compound The compounds are identified by the example number above where their preparations are described All data in the anti-bradykinin, rat writhing and Randall-Selitto tests were obtained on oral administration.
(In general: Writhing tests count abdominal constrictions after an irritant is injected.)

The test system of another experiment is cyclooxygenase. The experiment can be described thus: inhibition of cyclooxygenase assay (CO). In kind it is biochemical, mice. The procedure:
as §2
The test procedure used to determine cyclooxygenase inhibitory activity is described as follows.
Male mice were decapitated and stomach and brain (cerebral cortex, hypothalamus and medulla) were rapidly dissected over ice. The brains were homogenized in 3 volumes of ice cold 0.1 M potassium phosphate buffer, pH 7.4 containing 10 mM EDTA and 1% BSA (w/v). The homogenate was centrifuged at 10,000 xg for 15 minutes. The resulting supernatant was decanted and centrifuged at 100,000 xg for 60 minutes yielding a crude microsomal pellet. The pellet was washed superficially three times in 3 volumes of 0.1 M potassium phosphate buffer before final resuspension in 1.5 volumes of 0.1 M potassium phosphate buffer containing 1 mM norepinephrine and 1 mM reduced glutathione. The microsomes (50 μl) were preincubated with 50 μl of indomethacin (0.3 μM), test compound or norepinephrine/glutathione-containing buffer for 5 minutes at room temperature. The enzyme reaction was initiated by the addition of 50 μl of ^14 C arachidonic acid to yield a final concentration of 10 μM. After a further incubation of 15 minutes at 37° C., the reaction was stopped by the addition of 50 μl of 4M formic acid. Blank values were determined by using microsomes boiled for 5 minutes but otherwise were treated similarly. The ^14 C-labelled material was extracted 3 times with 0.5 ml of ethyl acetate with intermediate centrifugations at 500 xg for 5 minutes to clarify the aqueous and organic phases. This procedure extracted >95% of the ^14 C-labelled materials. The ethyl acetate washes were added to tubes containing 5 μg each of PGE2, PGF2, PGD2, and 10 μg PGI2 in 25 μl of ethanol. The mixture was evaporated to dryness under nitrogen and the residue dissolved in 150 μl of chloroform:methanol (2:1). This solution was spotted on 5×20 cm silica gel plates and chromatographed with an ethyl acetate, trimethylpentane, acetic acid and water mixture (110:50:20:100 by volume) prepared by shaking the solvents and separating and discarding the organic phase. The prostaglandins were visualized in iodine vapor, the various spots were scraped, and the ^14 C-labelled prostaglandins quantitated by liquid scintillation spectroscopy in 10 ml of BIOFLUOR® or FLUORODYNE®.
as §3

For experiment [2], the system named is acetylcholine-induced abdominal constriction. The experiment can be described thus: acetylcholine-induced abdominal constriction test (ACH). The experiment is classed as in vivo, mice. To be noted: for ED50: Mus musculus.
Excerpt: as §1, §3

Setting [3] is: p.o., dose level 100, aqueous methanesulfonic acid (MS).
Setting [4] is: 30 μM, negative values = increases over controls, not demonstrated to differ significantly.
The mark [5] stands for this setting: p.o., dose level 100, suspension in gum tragacanth (GT).

A word on the IC50: it is the concentration that inhibits the measured activity by half. One may read the ED50 as the midpoint of the dose-response relation. In turn, `Cc1c(C(=O)c2cccc3ccccc23)c2cccc3c2n1C(CN1CCOCC1)CO3` (single isomer, unassigned; (+)) [2B(d), (+)-3-(4-morpholinylmethyl)-5-methyl-6-(1-naphthylcarbonyl)-2,3-dihydropyrrolo1,2,3-de]-1,4-benzoxazine methanesulfonate] returned an IC50 in the experiment with mouse vas deferens of 0.43 ± 0.1 nM. Also, the ED50 in experiment [1] stood at 7.5 mg/kg; in experiment [2] (iv) it was 0.027 mg/kg; in experiment [2] (po, aqueous methanesulfonic acid (MS)) it was 33 mg/kg. Also, in the experiment on cyclooxygenase (100 μM), the “CO percent inhibition (% I)” value is reported as 9%.
`COc1ccc(C(=O)c2c(C)n3c4c(cccc24)OCC3CN2CCOCC2)cc1` (single isomer, unassigned; (+)) [2H(d)] registered an IC50 with mouse vas deferens of 44 ± 13 nM.
Regarding `Cc1c(C(=O)c2cccc3c(Br)cc(Br)cc23)c2cccc3c2n1C(CN1CCOCC1)CO3` (single isomer, unassigned; (+)) [Example 2G, (+)-3-(4-morpholinylmethyl)-5-methyl-6-(5,7-dibromo-1-naphthylcarbonyl)-2,3-dihydropyrrolo[1,2,3-de]-1,4-benzoxazine], in the experiment on mouse vas deferens, the 50% inhibitory concentration (IC50) is 40 ± 5.4 nM.
The compound `CS(=O)(=O)O.Cc1c(C(=O)c2cccc3ccccc23)c2cccc3c2n1C(CN1CCOCC1)CO3` (single isomer, unassigned; (-)) [2B(1), (-)-3-(4-morpholinylmethyl)-5-methyl-6-(1-naphthylcarbonyl)-2,3-dihydropyrrolo[1,2,3-de]-1,4-benzoxazine methanesulfonate] came in with an MVD percent inhibition in the experiment on mouse vas deferens of 37%. Besides, the IC50 in the experiment on mouse vas deferens (methanesulfonate) was > 10000 nM. In experiment [1] (dose level 100), the RW percent inhibition worked out at 12%. In the experiment with cyclooxygenase (100 μM), the “CO percent inhibition (% I)” value was determined as 10.4%. Besides, the ACH percent inhibition was found to be 20% in experiment [2] (i.v., dose level 0.3); 40% in experiment [2] (i.v., dose level 1); 10% in experiment [2] (i.v., dose level 3); 30% in experiment [2] (i.v., dose level 5.5); 10% in experiment [2] (p.o., dose level 10, aqueous methanesulfonic acid (MS)); 10% in experiment [2] (p.o., dose level 30, aqueous methanesulfonic acid (MS)). In addition, the ACH percent inhibition in experiment [2] (setting [3]) was found to be 10%; in experiment [2] (p.o., dose level 173, aqueous methanesulfonic acid (MS)), 30%.
Consider `COc1ccc(C(=O)c2c(C)n3c4c(cccc24)OCC3CN2CCOCC2)cc1` (single isomer, unassigned; (-)) [2H(1), (-)-3-(4-morpholinylmethyl)-5-methyl-6-(4-methoxybenzoyl) -2,3-dihydropyrrolo[1,2,3-de]-1,4-benzoxazine], for which, in the experiment with mouse vas deferens, the MVD percent inhibition came to 44% and the half-maximal inhibitory concentration (IC50) is > 10000 nM.
Turning to `Cc1c(C(=O)c2cccc3ccccc23)c2cccc3c2n1C(CN1CCOCC1)CO3` (stereo not shown) [1B (CH3 SO3 H), 3-(4-morpholinylmethyl)-5-methyl-6-(1-naphthylcarbonyl)-2,3-dihydropyrrolo1,2,3-de]-1,4-benzoxazine methanesulfonate], the half-maximal inhibitory concentration (IC50) with mouse vas deferens was 6 ± 0.6 nM.
`Cc1c(C(=O)c2cccc3ccccc23)c2cccc3c2n1C(CN1CCOCC1)CO3` (stereo not shown) [1B (base)] yielded an IC50 with mouse vas deferens of 4 ± 2 nM.
With `Cc1c(C(=O)c2ccc3ncccc3c2)c2cccc3c2n1C(CN1CCOCC1)CO3` (stereo not shown) [Example 1C], the IC50 in the experiment with mouse vas deferens was 21 ± 0.65 nM. Moreover, the median effective dose (ED50) in experiment [1] is 3.5 mg/kg; in experiment [2] (iv), 1.8 mg/kg; in experiment [2] (po, vehicle not given), 27 mg/kg. Moreover, in the experiment on cyclooxygenase (setting [4]), the “CO percent inhibition (% I)” value is -26.2%. Besides, in experiment [2] (s.c., dose level 100, suspension in gum tragacanth (GT)), the ACH percent inhibition came to 0%.
`CCc1c(C(=O)c2ccc(OC)cc2)c2cccc3c2n1C(CN1CCOCC1)CO3` (stereo not shown) [Example 2A, 3-(4-morpholinylmethyl)-5-ethyl-6-(4-methoxybenzoyl)-2,3-dihydropyrrolo[1,2,3-de]-1,4-benzoxazine]: in the experiment on mouse vas deferens, the MVD percent inhibition amounted to 27% and the IC50 was > 10000 nM. Besides, the ACH percent inhibition in experiment [2] (setting [5]) is on record as 20%.
`COc1ccc(C(=O)c2cn3c4c(cccc24)OCC3CN2CCOCC2)cc1` (stereo not shown) [Example 2C, 3-(4-morpholinylmethyl)-6-(4-methoxybenzoyl)-2,3-dihydropyrrolo[1,2,3-de]-1,4-benzoxazine] displayed an IC50 in the experiment on mouse vas deferens of 44 ± 9.8 nM. Moreover, the “CO percent inhibition (% I)” value in the experiment with cyclooxygenase (setting [4]) is listed as -8.9%. This compound also displayed a 50% effective dose (ED50) in experiment [2] (iv) of 3.9 mg/kg. This compound returned an ACH percent inhibition in experiment [2] (setting [5]) of 30%.
In turn, `CS(=O)(=O)O.Cc1c(C(=O)c2ccccc2F)c2cccc3c2n1C(CN1CCOCC1)CO3` (stereo not shown) [Example 2D, 3-(4-morpholinylmethyl)-5-methyl-6-(2-fluorobenzoyl)-2,3-dihydropyrrolo[1,2,3-de]-1,4-benzoxazine methanesulfonate] yielded an IC50 with mouse vas deferens of 76 ± 4 nM. Besides, the ED50 in experiment [2] (iv) is 2 mg/kg. Besides, the ACH percent inhibition in experiment [2] (setting [3]) came out at 30%.
As to `CS(=O)(=O)O.Cc1c(C(=O)c2ccc(Br)c3ccccc23)c2cccc3c2n1C(CN1CCOCC1)CO3` (stereo not shown) [Example 2E, 3-(4-morpholinylmethyl)-5-methyl-6-(4-bromo-1-naphthylcarbonyl)-2,3-dihydropyrrolo[1,2,3-de]-1,4-benzoxazine methanesulfonate], in the experiment on mouse vas deferens, half-maximal inhibition (IC50) required 2.2 ± 0.2 nM. The ACH percent inhibition in experiment [2] (p.o., dose level 100, aqueous lactic acid (LA)) was found to be 0%; in experiment [2] (setting [5]), 35%.
`O=C(c1cccc2ccccc12)c1cn2c3c(cccc13)OCC2CN1CCOCC1` (stereo not shown) [Example 2F] had an IC50 with mouse vas deferens of 2 ± 0.03 nM. For the same compound, the ACH percent inhibition in experiment [2] (setting [5]) stood at 10%.
Compound `Cc1c(C(=O)c2cccc3ccccc23)c2cccc3c2n1CC(CN1CCOCC1)O3` (stereo not shown) [Example 2I, 2-(4-morpholinylmethyl)-5-methyl-6-(1-naphthylcarbonyl-2,3-dihydropyrrolo1,2,3-de]-1,4-benzoxazine] came in with an IC50 in the experiment with mouse vas deferens of 4 ± 2 nM.
On the same count and under the same terms, with “(-)-3-(4-morpholinylmethyl)-5-methyl-6-(5,7-dibromonaphthylcarbonyl)-2,3-dihydropyrrolo[1,2,3-de]-1,4-benzoxazine methanesulfonate [Example 1E]” the figure was 2620 ± 1700 nM.
